From patent publication US6670132B2, “Determining non-nucleic acid molecule binding to target by competition with nucleic acid ligand” (Gilead Sciences, Inc., priority 1999, dated 2003)
[NH2-N] = 2'-amino-2'-deoxy sugar (2'-aminopyrimidine nucleotide) (N: the base)

How the values were obtained:
[1] = molecular target: T1, PDGF-BB (Homo sapiens, UniProt P01127); assay: PDGF aptamer competition assay (displacement of 32P-labeled 20tb, nitrocellulose filter binding); details: competition with 1.16 nM 32P end-labeled 20tb, 1.0 nM PDGF-BB, 37° C.; calculated from competition profiles by equations (1)-(3); read-out: KdC
T1 construct: purchased R&D Systems (Minneapolis, Minn.)
T1 sequence (P01127 82-190 limits assumed): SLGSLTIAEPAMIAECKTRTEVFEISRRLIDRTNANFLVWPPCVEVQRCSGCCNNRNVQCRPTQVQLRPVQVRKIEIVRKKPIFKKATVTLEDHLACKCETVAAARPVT
Protocol: Small molecule oligoanions were screened for their ability to compete with PDGF aptamer 20tb for binding to the PDGF-BB protein. The small molecule (or cold 20tb) competitors at varying concentrations were mixed with the 5′-^32P end-labeled 20tb ligand at room temperature. PDGF was then added to the mixture and allowed to equilibrate for 45 minutes at room temperature followed by 15 minutes at 37° C. The competition mixtures (90 μL volume) all had ^32P end-labeled 20tb at 1.16 nM, PDGF-BB at 1 nM and were in 25 mM Hepes, 137 mM NaCl, 2.7 mM KCl, 1 mM MgCl2, 1 mM CaCl2, 0.067% human serum albumin (HSA), at pH 7.4 (HBSMC). […] The filters were placed in tubes with scintillant and the radioactivity counted to quantitate the fraction of ^32P end-labeled 20tb bound at each competitor concentration.
Competition experiments were analyzed by the following equation to determine the concentration of free protein, [PF], as a function of the total concentration of competitor added, [CT]: […]
where KdR is the binding constant of species R to the protein (assuming 1:1 stoichiometry) and KdC is the binding constant of species C, the competitor, to the protein (assuming 1:1 stoichiometry). […] Using these values of [PF], the concentration of protein-ligand complex [PR] as a function of [CT] was determined by the following equation: […]

[2] = molecular target: T1, PDGF-BB; assay: Binding of PDGF aptamers to PDGF-BB
Source text: For the PDGF competition assay, a DNA PDGF aptamer sequence identified previously was used. The aptamer and methods used herein are described in detail in Example One. Aptamers obtained in this experiment bind preferentially to the B-chain of PDGF in a manner that inhibits receptor binding and PDGF-BB-induced DNA synthesis in vitro. Using photo-crosslinking experiments, it has been shown that a specific nucleotide in the aptamer interacts with phenylalanine-84 of the PDGF B-chain which is located near the region of PDGF know to be involved in receptor binding (Green, L. S. et al. (1996) Biochemistry 35, 14413-24). […] Thus, the aptamer used for competition binding experiments, 20tb, is a 27-mer that binds to PDGF-BB with a Kd of 0.5 nM.
A panel of oligoanions, mostly in the naphthalene sulfonic acid class, were screened for their ability to displace a ^32P-radiolabeled aptamer (20tb) from PDGF-BB. […] A nitrocellulose filter binding method was used to separate bound from unbound aptamer. Structures of competitors used in this competition assay are shown in FIGS. 1A-C along with the Kdc values calculated form the competition profiles (FIG. 2) according to equations (1)-(3) (Experimental Methods). For all competition experiments, the concentration of the ^32P end-labeled 20tb aptamer and PDGF-BB was 1.16 nM and 1.0 nM, respectively. […]

[3] = tested on: wheat germ agglutinin (WGA); assay: Wheat germ agglutinin aptamer competition assay (displacement of 32P-labeled 11.20, nitrocellulose filter binding); set-up: species or system Triticum vulgare; details: 10 nM 32P end-labeled 11.20, 10 nM WGA, room temperature
Protocol: Small molecule oligosaccharides were screened for their ability to compete with WGA aptamer 11.20 for binding to wheat germ agglutinin protein. The small molecule (or cold 11.20) competitors at varying concentrations were mixed with the 5′-32P end-labeled 11.20 ligand at room temperature. Then WGA was added to the mixture and allowed to equilibrate for 60 minutes at room temperature. The competition mixtures (90 μL volume) all had 32P end-labeled 11.20 at 10 nM, WGA at 10 nM and were in 25 mM Hepes, 137 mM NaCl, 2.7 mM KCl, 1 mM MgCl2, 1 mM CaCl2, 0.067% human serum albumin (HSA), at pH 7.4 (HBSMC). Aptamer bound to WGA was separated from free aptamer by filtration through pre-washed […] nitrocellulose membrane filters. Filters were washed with 5 mL HBSMC at room temperature. The filters were placed in tubes with scintillant and the radioactivity counted to quantitate the fraction of 32P end-labeled 11.20 bound at each competitor concentration.
Competition experiments were analyzed by the following equation to determine the concentration of free protein, [PF], as a function of the total concentration of competitor added, [CT]:
[PF]=[PT]/(1+KdR[RT]/(1+KdR[PF])+KdC[CT]/(1+KdC[PF])) (1)
where KdR is the binding constant of species R to the protein (assuming 1:1 stoichiometry) and KdC is the binding constant of species C, the competitor, to the protein (assuming 1:1 stoichiometry). Equation (1) was solved to self-consistency of [PF] to a precision of 1×10^−15. Using these values of [PF], the concentration of protein-ligand complex [PR] as a function of [CT] was determined by the following equation:
[PR]=KdR[RT][PF](1+KdC[PF]) (2)
Since the experimental data are expressed as %[PR], the calculated concentration of [PR] was normalized by [PR0], the [PR] in the absence of the competitor. [PR0] was obtained by solving equation (1) where [CT]=0. The maximum (M) and minimum (B) %[PR] were allowed to float during the analysis as shown in the following equation:
%[PR]=[PR]/[PR0](M−B)+B (3)
A non-linear least-squares fitting procedure was used as described by Bates and Watts (Bates, D. M. and Watts, D. G. 1988 in Non-Linear Regression Analysis and its Applications, D. M. Bates and D. G. Watts editors, John Wiley & Sons, NY, N.Y.). […]
A group of carbohydrates related to GlcNAc3 were tested for their ability to displace radiolabeled 11.20 from WGA. […] Structures of competitors used in this assay are shown in FIGS. 3A-C along with the Kdc values calculated from the competition profiles (FIGS. 4A-D) according to equations (1)-(3). […]

[4] = tested on: WGA; details: cited from earlier work; for concentration required to completely inhibit WGA-mediated agglutination: tested previously (U.S. Pat. No. 5,780,228)

Molecule: O=S(=O)(O)c1ccc2c(S(=O)(=O)O)cc(S(=O)(=O)O)cc2c1 [naphthalene 1,3,6-trisulfonic acid]
- Kd [1]: 870 µM

Molecule: 20tb: synthetic 27-mer DNA oligo, truncated PDGF aptamer, 5′GGGCCGTTTCGGGTTACTTTTAGTCCC (DNA, backbone not given here)
- Kd ([2]; aptamer binding to PDGF-BB): 500 pM

Molecule: 20ta: synthetic 33-mer DNA oligo, PDGF aptamer, 5′CGGGCGCGTTCTTCGTGGTTACTTTTAGTCCCG (DNA, backbone not given here)
- Kd ([2]; aptamer binding to PDGF): 50 pM

Molecule: CC(=O)N[C@H]1[C@H](O[C@H]2[C@H](O)[C@@H](NC(C)=O)C(O)O[C@@H]2CO)O[C@H](CO)[C@@H](O[C@@H]2O[C@H](CO)[C@@H](O)[C@H](O)[C@H]2NC(C)=O)[C@@H]1O (some centres unmarked) [(GlcNAc)3, N,N′,N″-triacetylchitotriose]
- ability to displace radiolabeled 11.20 from WGA [3]: best ligands
- concentration required to completely inhibit WGA-mediated agglutination [4]: 18.5 µM

Molecule: CC(=O)N[C@H]1[C@H](O[C@H]2[C@H](O)[C@@H](NC(C)=O)C(O)O[C@@H]2CO)O[C@H](CO)[C@@H](O)[C@@H]1O (some centres unmarked) [(GlcNAc)2, N,N′-diacetylchitobiose]
- ability to displace radiolabeled 11.20 from WGA [3]: best ligands

Molecule: CC(=O)N[C@H]1[C@H](O[C@H]2[C@H](O)[C@@H](NC(C)=O)C(O)O[C@@H]2CO)O[C@H](CO)[C@@H](O[C@@H]2O[C@H](CO)[C@@H](O[C@@H]3O[C@H](CO)[C@@H](O)[C@H](O)[C@H]3NC(C)=O)[C@H](O)[C@H]2NC(C)=O)[C@@H]1O (some centres unmarked) [(GlcNAc)4, N,N′,N″,N′″-tetraacetyltetraose]
- ability to displace radiolabeled 11.20 from WGA [3]: best ligands

Molecule: O=S(=O)(O)c1ccc(N=Nc2c(S(=O)(=O)O)cc3cc(S(=O)(=O)O)cc(O)c3c2O)cc1 [SPADNS, 2-(4-sulfophenylazo)-1,8-dihydroxy-3,6-naphthalene disulfonic acid]
- Kd [1]: 19 µM

Molecule: CC(=O)N[C@H]1C(O)O[C@H](CO)[C@@H](O)[C@@H]1O (stereo partly drawn) [GlcNAc, N-acetyl-D-glucosamine]
- ability to displace radiolabeled 11.20 from WGA [3]: not a competitor
- concentration required to completely inhibit WGA-mediated agglutination [4]: 800 µM

B1: 11.20: 98-mer RNA transcript with 2′aminopyrimidine bases, WGA aptamer (nucleic acid)
chain: GGGAAAAGCGAAUCAUACACAAGAUUGGUCGUACUGGACAGAGCCGUGGUAGAGGGAUUGGGACAAAGUGUCAGCUCCGCCAGAGACCAACCGAGAA
modifications: [NH2-N] at CU, RNA at AG, all phosphodiester, methylation of C not given here
- inhibition of WGA-mediated agglutination of sheep erythrocytes ([4]; as described in U.S. Pat. No. 5,780,228): potently inhibited
